Assay results reported in PMC6467542 (Bioorganic & Medicinal Chemistry, 2019).
≈ marks a conversion by molar mass, not a printed value. Where two headings read alike, the source gives them in different places.

Tests used:
in vitro [1] = conditions: human, microsomes
M. tb (strain H37Rv) [2] = test: MIC90 against replicating M.tb (MABA); format: cell-based, Mycobacterium tuberculosis; conditions: Mycobacterium tuberculosis, aerobic (replicating) conditions, 90% inhibition of growth
[3] = mouse, in vivo
M.tb = test: Efficacy in a mouse model of TB (lung CFU reduction); format: in vivo
in vitro [4] = conditions: mouse, microsomes
hERG potassium channel = hERG potassium channel (Homo sapiens, UniProt Q12809); test: Inhibition of hERG potassium current (patch clamp electrophysiology); conditions: for IC50: read-out: hERG IC50, manual patch clamp, 5-concentration dose-response; for hERG % inhibition at 3 µM: manual or (less accurate) QPatch assay
Chain of hERG potassium channel (Q12809 whole entry): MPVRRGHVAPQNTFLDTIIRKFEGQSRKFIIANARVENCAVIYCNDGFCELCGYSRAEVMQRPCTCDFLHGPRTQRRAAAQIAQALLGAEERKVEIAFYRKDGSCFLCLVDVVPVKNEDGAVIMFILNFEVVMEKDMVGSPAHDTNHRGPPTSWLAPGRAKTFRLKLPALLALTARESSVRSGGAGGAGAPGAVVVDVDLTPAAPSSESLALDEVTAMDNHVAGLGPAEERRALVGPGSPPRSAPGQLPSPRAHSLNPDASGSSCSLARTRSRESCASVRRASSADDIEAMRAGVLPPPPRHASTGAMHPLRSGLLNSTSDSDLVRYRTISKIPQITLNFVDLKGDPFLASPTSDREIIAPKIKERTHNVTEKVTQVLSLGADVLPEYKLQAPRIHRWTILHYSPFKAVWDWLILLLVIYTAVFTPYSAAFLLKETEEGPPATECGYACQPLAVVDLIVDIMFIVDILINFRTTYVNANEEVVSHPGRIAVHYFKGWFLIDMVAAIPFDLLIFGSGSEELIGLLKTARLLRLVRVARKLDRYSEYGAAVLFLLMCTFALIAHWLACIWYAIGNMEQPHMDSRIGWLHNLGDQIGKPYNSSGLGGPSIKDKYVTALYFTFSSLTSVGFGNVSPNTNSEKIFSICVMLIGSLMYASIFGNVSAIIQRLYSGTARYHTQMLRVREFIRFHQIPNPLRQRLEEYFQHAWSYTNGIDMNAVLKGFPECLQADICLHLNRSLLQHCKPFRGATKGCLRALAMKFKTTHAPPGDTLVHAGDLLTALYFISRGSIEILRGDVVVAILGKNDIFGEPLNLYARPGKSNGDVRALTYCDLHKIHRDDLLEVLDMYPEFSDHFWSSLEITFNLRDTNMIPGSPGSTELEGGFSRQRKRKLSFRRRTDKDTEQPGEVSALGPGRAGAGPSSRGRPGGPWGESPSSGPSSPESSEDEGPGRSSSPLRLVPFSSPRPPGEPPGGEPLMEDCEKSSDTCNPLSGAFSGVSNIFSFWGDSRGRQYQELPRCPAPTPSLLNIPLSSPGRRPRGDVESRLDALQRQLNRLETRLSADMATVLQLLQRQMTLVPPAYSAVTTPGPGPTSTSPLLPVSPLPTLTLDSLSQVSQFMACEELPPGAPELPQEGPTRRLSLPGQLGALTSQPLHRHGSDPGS

M. tb (strain H37Rv) [5] = test: MIC90 against non-replicating M.tb (LORA); format: cell-based, Mycobacterium tuberculosis; conditions: Mycobacterium tuberculosis, H37RV, read-out: MIC90 LORA
Method: In these assays, 1 is a potent inhibitor, with MICs of 0.08 and 0.12 µg/mL, respectively. Replacement of the naphthalene C-unit of 1 with various pyridyls produced analogues of considerably lower lipophilicity, with clogP values ranging from 6.89 down to 2.98.

in vivo = conditions: mouse, iv
CYP3A4 = CYP3A4 (Homo sapiens, UniProt P08684); test: Inhibition of CYP 3A4; format: in vitro ADME
Chain of CYP3A4 (P08684 whole entry): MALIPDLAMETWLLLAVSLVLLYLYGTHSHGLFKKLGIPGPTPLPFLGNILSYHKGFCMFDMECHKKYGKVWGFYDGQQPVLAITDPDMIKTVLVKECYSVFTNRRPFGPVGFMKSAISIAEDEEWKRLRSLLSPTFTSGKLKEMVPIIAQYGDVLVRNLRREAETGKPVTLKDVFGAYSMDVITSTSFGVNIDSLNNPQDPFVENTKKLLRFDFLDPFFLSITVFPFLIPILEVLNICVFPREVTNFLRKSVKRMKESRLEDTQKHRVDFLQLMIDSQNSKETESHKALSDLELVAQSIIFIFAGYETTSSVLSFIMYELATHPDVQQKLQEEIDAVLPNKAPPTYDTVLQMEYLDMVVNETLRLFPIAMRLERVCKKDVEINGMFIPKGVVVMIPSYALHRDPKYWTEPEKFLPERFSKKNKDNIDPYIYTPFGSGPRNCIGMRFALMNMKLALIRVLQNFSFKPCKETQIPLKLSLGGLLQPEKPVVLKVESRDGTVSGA

[6] = Clearance by human liver microsomes
[7] = Clearance by mouse liver microsomes
[8] = Cytotoxicity in Vero cells; format: cell-based; conditions: green monkey, Vero green monkey-derived epithelial kidney cells
[9] = Mycobacterium tuberculosis, inhaled or nasal, 288 h; read-out: Log reduction in colony-forming units (CFU), new compound

SMILES	microsomal CLint (in vitro [1]) [µL/min/mg]	MIC90 (M. tb (strain H37Rv) [2]) [µg/mL]	AUC: exposure, AUCinf [3] [ng·h/mL]	IV Cl: IV clearance [3] [mL/min/kg]	Vz: IV apparent volume of distribution during terminal phase [3] [L/kg]	F: oral bioavailability [3] [%]	log reduction at 20 mg/kg (M.tb; [9])	microsomal CLint (in vitro [4]) [µL/min/mg]	IC50 (hERG potassium channel) [nM]	MIC90 (M. tb (strain H37Rv) [5]) [µg/mL]	clearance (in vivo) [mL/min/kg]	hERG % inhibition at 3 µM (hERG potassium channel) [%/3]	further results
CCOc1cc(C(O)(CCN(C)C)C(c2cc(OC)nc(OC)c2)c2cc3cc(Br)ccc3nc2OC)cc(OC(C)C)n1 (centres unmarked) [Compound 62]	1	< 0.02	33000	3	20	58	4.5	2.3	> 10000				
COc1cc(C(O)(CCN(C)C)C(c2cc3cc(Br)ccc3nc2OC)c2ccnc(OC)c2OC)cnc1OC (centres unmarked) [Compound 48]	5	0.06 (≈ 0.0956 µM)	4280	19	6.0	48	0.9	59	3600	0.45 (≈ 0.717 µM)			
COc1cccc(C(c2cc3cc(C#N)ccc3nc2OC)C(O)(CCN(C)C)c2cc(C)nc(C)c2)c1OC (centres unmarked) [Compound 57]	7	0.24 (≈ 0.444 µM)	1480	71	82	54	1.9	7	5200	0.61 (≈ 1.13 µM)	> 50		
COc1nc2ccc(Br)cc2cc1C(c1cccc(C)c1)C(O)(CCN(C)C)c1cccnc1C (centres unmarked) [Compound 19]	35	0.15 (≈ 0.281 µM)	400	59	33	10		71		0.25 (≈ 0.468 µM)	> 50	26	
COc1nc2ccc(Br)cc2cc1C(c1cccc2c1OCO2)C(O)(CCN(C)C)c1cccnc1OC (centres unmarked) [Compound 41]	36	0.66 (≈ 1.14 µM)	3780	27	20	46	0.3	19		1.1 (≈ 1.89 µM)		26	
COc1cccc(C(c2cc3cc(Br)ccc3nc2OC)C(O)(CCN(C)C)c2cnc(C)cc2C)c1OC (centres unmarked) [Compound 38]	13	0.02 (≈ 0.0336 µM)	2080	28	23	34	0.7	46	3900	0.24 (≈ 0.404 µM)			
COc1nc2ccc(Br)cc2cc1C(c1cccc(C)c1)C(O)(CCN(C)C)c1cccnc1OC (centres unmarked) [Compound 39]	10	0.13 (≈ 0.236 µM)	2510				0.6	20	450	0.14 (≈ 0.254 µM)			
COc1cccc(C(O)(CCN(C)C)C(c2cc3cc(Br)ccc3nc2OC)c2cccc3c2OCO3)n1 (centres unmarked) [Compound 15]	8	0.54 (≈ 0.93 µM)	5600	13	10	45	0.3	25	240	0.58 (≈ 0.999 µM)			IC50 (CYP3A4): 7600 nM
COc1cccc(C(c2cc3cc(Br)ccc3nc2OC)C(O)(CCN(C)C)c2cc(C)cnc2C)c1OC (centres unmarked) [Compound 33]	7	0.07 (≈ 0.118 µM)	1390	79	77	72	3.5	17	1100	0.11 (≈ 0.185 µM)	> 50		
COc1cc(C(O)(CCN(C)C)C(c2cc3cc(Br)ccc3nc2OC)c2ccnc(OC)c2OC)c(OC)nc1OC (centres unmarked) [Compound 49]	5	0.57 (≈ 0.867 µM)	9130	10	12	52		7	2700	1.4 (≈ 2.13 µM)			
COc1cccc(C(c2cc3cc(C#N)ccc3nc2OC)C(O)(CCN(C)C)c2cc(C)nc(C)c2)c1F (centres unmarked) [Compound 55]	12	0.6 (≈ 1.14 µM)	350	130	53	25		51		0.91 (≈ 1.72 µM)	> 50	37	
CCOc1cc(C(O)(CCN(C)C)C(c2cc3cc(Br)ccc3nc2OC)c2ccnc(OC)c2OC)cc(OC(C)C)n1 (centres unmarked) [Compound 61]		0.01 (≈ 0.0149 µM)								0.06 (≈ 0.0896 µM)			microsomal CLint [6]: 8 µL/min/mg; F: oral bioavailability (Mouse pharmacokinetics; mice): 50%; AUC: exposure, AUCinf (Mouse pharmacokinetics; mouse): 10900 ng·h/mL; IV Cl: IV clearance (Mouse pharmacokinetics; mouse, IV): 7 mL/min/kg; Vz: IV apparent volume of distribution during terminal phase (Mouse pharmacokinetics; mouse, IV): 44 L/kg; log reduction at 20 mg/kg (M.tb; Mycobacterium tuberculosis, inhaled or nasal, 288 h, read-out: Log reduction in colony-forming units (CFU), new compound): 5; microsomal CLint [7]: 7 µL/min/mg
COc1nc2ccc(Br)cc2cc1C(c1cccc2c1OCO2)C(O)(CCN(C)C)c1cccnc1C (centres unmarked) [Compound 21]	71	0.45 (≈ 0.797 µM)	820	44	21	19		51		0.56 (≈ 0.992 µM)		13	
COc1nc2ccc(Br)cc2cc1[C@@H](c1ccccc1)[C@@](O)(CCN(C)C)c1cccc2ccccc12 [Compound 1, Bedaquiline, reference compound]		0.08 (≈ 0.144 µM)								0.12 (≈ 0.216 µM)			IC50 [8]: 4 to 16 µg/mL (≈ 7.2 to 28.8 µM)
COc1cccc(C(c2cc3cc(Br)ccc3nc2OC)C(O)(CCN(C)C)c2ccc(C)nc2)c1F (centres unmarked) [Compound 22]	24	0.3 (≈ 0.528 µM)	250	67	10	8		99		0.28 (≈ 0.493 µM)	> 50	17	
COc1nc2ccc(C#N)cc2cc1C(c1cccc(C)c1)C(O)(CCN(C)C)c1cccnc1OC (centres unmarked) [Compound 40]	11	0.52 (≈ 1.05 µM)	1170	48	6.6	33	0.5	53	300	0.76 (≈ 1.53 µM)			
